Key:
[1] = molecular target: T1, p75NTR NGF receptors (Homo sapiens, UniProt P08138); assay: [3H]DHEA competition binding on membranes from HEK293 p75NTR cells; conditions: membranes from HEK293 p75NTR cells (FIG. 9)
T1 construct: expressed in transfected cells; host or cells: HEK293
T1 sequence (P08138 29-427): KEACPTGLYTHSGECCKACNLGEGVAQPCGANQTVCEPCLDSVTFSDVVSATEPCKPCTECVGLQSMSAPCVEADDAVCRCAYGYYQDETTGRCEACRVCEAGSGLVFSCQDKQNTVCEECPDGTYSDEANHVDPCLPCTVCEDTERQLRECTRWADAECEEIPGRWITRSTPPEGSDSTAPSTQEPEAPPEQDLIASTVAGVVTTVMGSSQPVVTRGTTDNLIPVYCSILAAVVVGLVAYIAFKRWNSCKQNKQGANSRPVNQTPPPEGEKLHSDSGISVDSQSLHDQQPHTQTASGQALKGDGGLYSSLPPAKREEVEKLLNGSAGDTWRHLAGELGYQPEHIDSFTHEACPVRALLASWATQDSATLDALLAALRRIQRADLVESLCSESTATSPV
Method: (§1) HEK293 cells were transfected with the cDNAs of TrkA and p75NTR, the high and low affinity receptors for nerve growth factor (NGF) (Ann Rev Biochem 72:604, 2003). Transfectants expressing the two NGF receptor subtypes were cultured in flasks and, after washing twice with PBS, they were detached from the flasks. After a centrifugation at 1500 g, they were homogenized by sonication, in a 50 mM Tris-HCl buffer pH 7.4 at 4° C., containing freshly added protease inhibitors (1 mM PMSF and 1 μg/ml aprotinin). Unbroken cells were removed by centrifugation at 1500 g (10 min at 4° C.), and membranes were collected by centrifuging at 102,000 g for 1 hr at 4° C. Membranes were washed once with Tris-HCl, briefly acidified at 4° C. (for 3 min) with 50 mM glycine (pH 5.0), and re-suspended in the same buffer. Protein content was assayed by the method of Bradford, using reagents from Bio-Rad (Hercules, Calif.). Membranes (at a final concentration of 2 mg/ml) were incubated with 5 nM [^3H]DHEA, in the absence (to determine the total binding) or presence of unlabelled BNN-124 at concentrations varying from 10^−12 to 10^−6 M and at a final volume of 100 μl, in Tris-HCl buffer (50 mM, pH 7.4). […] The filters were washed three times with ice-cold Tris-HCl, dried and counted in a β-scintillation counter (Perkin Elmer, Foster City, Calif.) with 60% efficiency for tritium.

[2] = molecular target: T2, TrkA NGF receptors (Homo sapiens, UniProt P04629); assay: [3H]DHEA competition binding on membranes from HEK293 TrkA cells; conditions: membranes from HEK293 TrkA cells (FIG. 9)
T2 construct: expressed in transfected cells; host or cells: HEK293
T2 sequence (P04629 33-796): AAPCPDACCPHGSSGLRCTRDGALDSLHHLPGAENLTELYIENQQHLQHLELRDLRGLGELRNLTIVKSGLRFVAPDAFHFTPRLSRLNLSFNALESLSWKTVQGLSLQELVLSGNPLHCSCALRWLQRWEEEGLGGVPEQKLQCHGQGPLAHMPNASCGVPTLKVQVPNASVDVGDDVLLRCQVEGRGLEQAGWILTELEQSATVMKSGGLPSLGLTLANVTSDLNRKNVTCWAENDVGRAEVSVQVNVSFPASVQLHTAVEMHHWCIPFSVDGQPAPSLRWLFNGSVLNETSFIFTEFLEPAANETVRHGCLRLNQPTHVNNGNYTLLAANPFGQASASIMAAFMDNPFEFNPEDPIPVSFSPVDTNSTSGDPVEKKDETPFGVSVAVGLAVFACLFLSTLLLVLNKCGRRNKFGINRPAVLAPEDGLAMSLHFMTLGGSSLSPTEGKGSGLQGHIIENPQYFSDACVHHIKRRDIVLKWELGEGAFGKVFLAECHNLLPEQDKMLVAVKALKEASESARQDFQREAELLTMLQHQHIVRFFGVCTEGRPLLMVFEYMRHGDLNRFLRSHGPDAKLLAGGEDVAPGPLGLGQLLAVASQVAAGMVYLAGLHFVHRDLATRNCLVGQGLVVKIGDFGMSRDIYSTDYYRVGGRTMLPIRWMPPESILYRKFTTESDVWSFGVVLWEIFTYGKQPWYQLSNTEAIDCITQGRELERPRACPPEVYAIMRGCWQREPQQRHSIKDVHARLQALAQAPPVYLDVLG
Method: as §1

[3] = tested on: DHEA specific membrane receptors; assay: [3H]DHEA competition binding on isolated PC12 cell membranes; set-up: species or system rat; conditions: for Kd: isolated PC12 cell membranes, 5 nM [3H]DHEA (FIG. 5)
Method: PC12 rat sympathoadrenal cells were cultured in 225 cm^2 flasks and, after washing twice with PBS, they were detached from the flasks by vigorous shaking. After a centrifugation at 1500 g, they were homogenized by sonication, in a 50 mM Tris-HCl buffer pH 7.4 at 4° C., containing freshly added protease inhibitors (1 mM PMSF and 1 μg/ml aprotinin). Unbroken cells were removed by centrifugation at 1500 g (10 min at 4° C.), and membranes were collected by centrifuging at 102,000 g for 1 hr at 4° C. Membranes were washed once with Tris-HCl, briefly acidified at 4° C. (for 3 min) with 50 mM glycine (pH 5.0), and re-suspended in the same buffer. Protein content was assayed by the method of Bradford, using reagents from Bio-Rad (Hercules, Calif.). Membranes (at a final concentration of 2 mg/ml) were incubated with 5 nM [^3H]DHEA, in the absence (to determine the total binding) or presence of unlabeled neurosteroids and their synthetic spiro analogs, at concentrations varying from 10^−12 to 10^−6 M and at a final volume of 100 μl, in Tris-HCl buffer (50 mM, pH 7.4). Following a […] incubation in a water bath, at 37° C., membranes were collected on GF/B filters, prewet in 0.5% PEI solution at 4° C. The filters were washed three times with ice-cold Tris-HCl, dried, supplemented with scintillation medium (Sigma Hellas, Athens, Greece) and counted in a β-scintillation counter (Perkin Elmer, Foster City, Calif.) with 60% efficiency for Tritium.

[4] = tested on: Neural-crest derived PC12 cells; assay: APOPercentage apoptosis assay, serum-deprivation induced apoptosis of PC12 cells; assay type: cell-based, rat; conditions: for IC50: Rattus norvegicus, PC-12, absence of serum 12 hours, ApoPercentage assay (FIG. 2), read-out: IC50 of anti-apoptotic, cytoprotective effect
Method: Neural-crest derived PC12 cells were maintained in culture at 5% CO2, at 37° C., in RPMI 1640 medium containing 2 mM L-glutamine, 15 mM HEPES, 100 units/ml penicillin, 0.1 mg/ml streptomycin, 10% horse serum, and 5% foetal calf serum. Serum free medium was supplemented with 1% bovine serum albumin (BSA). Different steroids, used at various concentrations, were initially diluted in ethanol. The final concentration of ethanol in each well, including controls was 0.01%. Conjugate DHEA-BSA was initially diluted in Phosphate Buffer Saline (PBS).
Cells were cultured in the absence of serum for 12 hours, supplemented with DHEA and various synthetic spiro neurosteroids at 10 nM. Cell apoptosis was quantitated with two different methods: The APOPercentage Apoptosis Assay (Biocolor Ltd., Belfast, N. Ireland) was used to quantify apoptosis, according to the manufacturer's instructions. Apoptosis was quantified following cell lysis by measuring the dye incorporated in apoptotic cells at 550 nm (reference filter 620 nm) using a colour filter microplate colorimeter (Dynatech MicroElisa reader, Chantilly, Va.) (see FIGS. 1 and 2). FACS Analysis: FACS analysis of apoptotic cells was performed according to our protocol (Proc Natl Acad Sci USA 101,8209 (2004)). Flow cytometry was performed with FACScan (Becton Dickinson, Heidelberg, Germany) and the results were analysed with the FACScan and Cell Quest softwares (see FIG. 3).

[5] = tested on: Bcl-2 and Bcl-xL proteins; assay: Western blot of anti-apoptotic Bcl-2 and Bcl-xL proteins in serum-deprived PC12 cells; assay type: cell-based, rat; conditions: 10 nM neurosteroid (FIG. 4)
Method: Neural-crest derived PC12 cells were cultured for 8 hours in the absence of serum, but supplemented with 10 nM of various neurosteroids. At the end of incubation cell lysates were subjected to electrophoresis through a 12% SDS-polyacrylamide gel. Then, proteins were transferred to nitrocellulose membranes, which were processed according to standard Western blotting procedures. To detect protein levels, membranes were incubated with the appropriate antibodies: Bcl-2, (Santa Cruz Biotechnology Inc., Santa Cruz, Calif., dilution 1:100) Bcl-xL (Cell Signalling Technology Inc., Beverly, Mass., dilution 1:100). A PC-based Image Analysis program was used to quantify the intensity of each band (Image Analysis, Inc., Ontario, Canada). To normalize for protein content, the blots were stripped and stained with anti-actin antibodies (Chemicon, Temecula, Calif., dilution 1:400); the concentration of each target protein was normalized versus actin.

[6] = tested on: Bcl-2 protein and ERK1/2 kinase; assay: Western blot of Bcl-2 and phosphorylated ERK1/2 in serum deprived PC12 cells; assay type: cell-based, rat; conditions: 8 hours, 10 nM BNN-124 or 20 ng/ml NGF (FIG. 9)
Method: Neural-crest derived PC12 cells were cultured for 8 hours in the absence of serum, but supplemented with 10 nM of synthetic neurosteroids of 20 ng/ml of NGF. At the end of incubation cell lysates were subjected to electrophoresis through a 12% SDS-polyacrylamide gel. Then proteins were transferred to nitrocellulose membranes, which were processed according to standard Western blotting procedures. To detect protein levels, membranes were incubated with the appropriate antibodies: Bcl-2 (Santa Cruz Biotechnology Inc., Santa Cruz, Calif., dilution 1:100), phosphorylated ERK1/2 (Cell Signalling Technology Inc., Beverly, Mass., dilution 1:100). To normalize for protein content, the blots were stripped and stained with anti-actin or anti-total ERK1/2 antibodies (Chemicon, Temecula, Calif., dilution 1:400).

[7] = tested on: Dopaminergic neural-crest derived PC12 cells; assay: Dopamine secretion from dopaminergic PC12 cells (radioimmunoassay); assay type: cell-based, rat; conditions: 10^-7 M; for stimulation of dopamine secretion, short-term: 5 to 30 min, effect within 10 min (FIG. 6A); for dopamine levels in culture media, long-term: 3 to 48 hours (FIG. 6B)
Method: Dopaminergic neural-crest derived PC12 cells were grown in 6-well plates, coated with poly-L-lysine, at a concentration of 10^6 cells/well. Cells were incubated with neurosteroids or the vehicle for several time periods; for the short-term experiments the incubation time ranged from 5 to 30 minutes and for the long-term from 3 to 48 hours. 1 mL of supernatants were transferred to tubes containing 200 μl 0.1 M HCl for measurement of dopamine, which was measured by radioimmunoassay (TriCat™ RIA, RE29395, IBL Immuno Biological Lab., Hamburg, Germany) using ^125I as a tracer. The analytical sensitivity of the method was 30 pg/ml, its intra-assay CV was 9.5%, and its inter-assay CV was 16.7%. The cross reactivity between dopamine and norepinephrine was <0.013%

[8] = tested on: Primary cortical neurospheres; assay: Migration of neural cells from primary cortical neurospheres; assay type: cell-based, mouse; conditions: 10^-7 M, within 24-48 hrs of culture, EGF/bFGF dependent (FIG. 7)
Method: Primary cortical neurospheres (21d) generated from wild type mice were cultured attached on PLL and laminin-coated coverslips in serum-free media in the presence or absence of EGF and bFGF (20 ng/ml final concentration each). For the screen, the media was supplemented with ethanol, retinoic acid (at-RA), DHEA, or the synthetic spiro neurosteroid BNN-93, at a final concentration of 10^−7M.

[9] = tested on: tyrosine hydroxylase mRNA; assay: Tyrosine hydroxylase (TH) RT-PCR in dopaminergic PC12 cells; assay type: cell-based, rat; conditions: dopaminergic PC12 cells (FIG. 6C)
Method: Tyrosine Hydroxylase (TH) RT-PCR: Total RNA was extracted from dopaminergic PC12 cells using the Trizol Reagent (Invitrogen Life technologies, CA). One microgram of total RNA was reverse transcribed by the Thermo-Script RT-PCR System (Invitrogen) using random hexamers in a total volume of 20 μl. Two microliters of the RT product was used as a template, amplified by PCR using 2 mM MgCl2, one strength PCR buffer, 0.2 mM of sense and antisense primers, 0.2 mM dNTPs and 2.5 U AmpliTaq Gold DNA polymerase (Perkin Elmer ABD, Foster City, Calif.) in a final reaction volume of 50 μl. PCR was performed in a Perkin Elmer DNA Thermal Cycler. Primers for TH were 5′-[…]-3′ (sense), and 5-[…]-3 (antisense) and for G3PDH were, 5′-[…]-3′ (sense), and 5′-[…]-3′ (antisense). Oligonucleotides were synthesized by MWG-Biotech AG (Munich, Germany). After reverse transcription, the cDNA product was amplified by PCR, at 33 cycles. The cycle number (33) was chosen such that amplification of the products was in the linear range with respect to the amount of input cDNA. PCR for G3PDH was performed in parallel to assure good quality of RNA and cDNA preparations. Each cycle consisted of 60 s at 92° C. for denaturation, 120 s at 53° C. for annealing, and 180 s at 72° C. for extension (60 s at 98° C., 90 s at 55° C., and 150 s at 72° C. for G3PDH respectively). 10 μl of the amplified products (368 bp for TH and 983 bp for G3PDH) were separated on a 2% agarose gel and visualized by ethidium bromide staining.

[10] = tested on: progenitor neural cells; assay: Neurogenesis of progenitor neural cells isolated from mouse fetal brain; assay type: cell-based; conditions: 100 nM, 24 hours (FIG. 8)
Method: This effect appeared to be EGF/bFGF dependent. […] The extent of migration of the first days in culture was mostly normalised as in most conditions cells had migrated out of the sphere to the periphery. The photographs shown (FIG. 7) were obtained on the 6th day of culture where migration effects are not so dramatic but still evident. Additionally, progenitor neural cells, isolated from mouse fetal brain, were exposed for 24 hours to 100 nM of BNN-93 or to the vehicle (control).

Compound	Kd [1] [nM]	Kd [2] [nM]	displacement of specific [3H]DHEA binding ([3]; at 1 μM, PC12 cell membranes)	Kd [3] [nM]	IC50 [4] [nM]	levels of anti-apoptotic Bcl-2 and Bcl-xL proteins [5]	induction of anti-apoptotic Bcl-2 protein and phosphorylation of ERK1/2 kinase [6]	competition for [3H]DHEA binding ([3]; at 1 μM, PC12 cell membranes)	reversal of serum deprivation-induced apoptosis ([4]; absence of serum 12 hours, steroids at 10 nM (FIG. 1)) [%]	stimulation of dopamine secretion, short-term [7]	migration of neural cells to the periphery of the neurospheres [8]	induction of tyrosine hydroxylase mRNA [9]	neurogenesis and differentiation of progenitors to neural cells [10]	dopamine levels in culture media, long-term [7]
C[C@]12CC[C@H](O)CC1=CCC1C2CC[C@@]2(C)C1CC[C@]21O[C@H]1CO (stereo partly drawn) [BNN-124, (20S)-3β,21-dihydroxy-17β,20-epoxy-5-pregnene]	1	0.29	approximately 60%	0.33	68.4	preventing this effect	same effect	–	–	–	–	–	–	–
C[C@]12CC[C@H](O)CC1=CC[C@@H]1[C@@H]2CC[C@]2(C)C(=O)CC[C@@H]12 [DHEA, dehydroepiandrosterone, reference compound]	–	–	–	1.1	0.15	preventing this effect	–	Almost complete competition	~50	doubling their levels	extensive migration	–	–	–
NGF: nerve growth factor	–	–	–	–	–	–	inducing	–	–	–	–	–	–	–
C[C@]12CC[C@H](O)CC1=CCC1C2CC[C@@]2(C)C1CC[C@@]21OC1CO (stereo partly drawn) [BNN-93, 3β,21-dihydroxy-17α,20-epoxy-5-pregnene]	–	–	approximately 60%	11.2	4.16	preventing this effect	–	–	–	doubling their levels	extensive migration	strong induction	stimulated neurogenesis and differentiation	increase of dopamine levels peaking at 24 h
C[C@]12CC[C@H](OS(=O)(=O)O)CC1=CC[C@@H]1[C@@H]2CC[C@]2(C)C(=O)CC[C@@H]12 [DHEAS, reference compound]	–	–	–	–	–	–	–	–	–	–	–	strong induction	–	increase of dopamine levels peaking at 24 h

From patent US9777037B2, “Neurosteroid compounds” (BIONATURE E. A. LTD., priority 2007, dated 2017)
